One assay deals with T1, hERG channel (Homo sapiens, UniProt Q12809).
T1 construct: host or cells: CHO cells
Briefly: hERG channel inhibitory activity, whole-cell patch clamp (auto-patch clamp system). Type of assay: cell-based. The note with it: read-out: hERG IC50. On the technique in general: hERG is a cardiac potassium channel; its block is linked to QT prolongation.

Another assay has as its target T2, Human BOAT1 (Homo sapiens, UniProt Q695T7).
T2 construct: expressed in transfected cells
T2 sequence (Q695T7 1-634): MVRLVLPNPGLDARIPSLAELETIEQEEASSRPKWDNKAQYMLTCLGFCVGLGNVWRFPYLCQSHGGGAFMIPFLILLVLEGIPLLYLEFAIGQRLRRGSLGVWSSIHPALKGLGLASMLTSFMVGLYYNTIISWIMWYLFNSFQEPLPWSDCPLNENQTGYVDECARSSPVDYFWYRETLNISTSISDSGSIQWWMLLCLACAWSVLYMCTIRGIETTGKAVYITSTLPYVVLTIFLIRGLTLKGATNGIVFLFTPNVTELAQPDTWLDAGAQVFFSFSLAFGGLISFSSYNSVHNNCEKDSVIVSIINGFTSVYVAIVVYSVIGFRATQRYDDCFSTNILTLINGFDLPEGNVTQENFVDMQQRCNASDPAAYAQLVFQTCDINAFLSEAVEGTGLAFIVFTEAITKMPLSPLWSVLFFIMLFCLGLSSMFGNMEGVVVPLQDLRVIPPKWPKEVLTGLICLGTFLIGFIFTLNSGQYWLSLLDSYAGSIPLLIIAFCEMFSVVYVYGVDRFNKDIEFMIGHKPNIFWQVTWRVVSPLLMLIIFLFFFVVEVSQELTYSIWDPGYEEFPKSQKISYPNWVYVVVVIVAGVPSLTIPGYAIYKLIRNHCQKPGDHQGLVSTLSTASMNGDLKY
The assay can be described thus: hBOAT1 inhibitory test (phenylalanine uptake). Type of assay: cell-based. The note with it: Human BOAT1 stable expression CHO cells, phenylalanine 0.25 mM, read-out: hB0AT1 IC50. Summed up:
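Human BOAT1 stably expressed in CHO cells (75000 cells/well) in HEPES-buffered NaCl/KCl/CaCl2/MgCl2 buffer with 0.01% BSA, compound at 0.5% DMSO, preincubated ≥30 min at ordinary temperature. Uptake of L-phenylalanine plus [3H]-L-phenylalanine (0.25 mM final) read by scintillation proximity; 100–200 min values analysed, non-specific uptake defined with […] reference inhibitor.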

Setting [1] is: [3H]-L-phenylalanine uptake, radioactivity after 100 to 200 min.

Like-named read-outs stand apart in the source and are kept apart here. Some results are limits rather than exact numbers.

T1 sequence (Q12809 whole entry): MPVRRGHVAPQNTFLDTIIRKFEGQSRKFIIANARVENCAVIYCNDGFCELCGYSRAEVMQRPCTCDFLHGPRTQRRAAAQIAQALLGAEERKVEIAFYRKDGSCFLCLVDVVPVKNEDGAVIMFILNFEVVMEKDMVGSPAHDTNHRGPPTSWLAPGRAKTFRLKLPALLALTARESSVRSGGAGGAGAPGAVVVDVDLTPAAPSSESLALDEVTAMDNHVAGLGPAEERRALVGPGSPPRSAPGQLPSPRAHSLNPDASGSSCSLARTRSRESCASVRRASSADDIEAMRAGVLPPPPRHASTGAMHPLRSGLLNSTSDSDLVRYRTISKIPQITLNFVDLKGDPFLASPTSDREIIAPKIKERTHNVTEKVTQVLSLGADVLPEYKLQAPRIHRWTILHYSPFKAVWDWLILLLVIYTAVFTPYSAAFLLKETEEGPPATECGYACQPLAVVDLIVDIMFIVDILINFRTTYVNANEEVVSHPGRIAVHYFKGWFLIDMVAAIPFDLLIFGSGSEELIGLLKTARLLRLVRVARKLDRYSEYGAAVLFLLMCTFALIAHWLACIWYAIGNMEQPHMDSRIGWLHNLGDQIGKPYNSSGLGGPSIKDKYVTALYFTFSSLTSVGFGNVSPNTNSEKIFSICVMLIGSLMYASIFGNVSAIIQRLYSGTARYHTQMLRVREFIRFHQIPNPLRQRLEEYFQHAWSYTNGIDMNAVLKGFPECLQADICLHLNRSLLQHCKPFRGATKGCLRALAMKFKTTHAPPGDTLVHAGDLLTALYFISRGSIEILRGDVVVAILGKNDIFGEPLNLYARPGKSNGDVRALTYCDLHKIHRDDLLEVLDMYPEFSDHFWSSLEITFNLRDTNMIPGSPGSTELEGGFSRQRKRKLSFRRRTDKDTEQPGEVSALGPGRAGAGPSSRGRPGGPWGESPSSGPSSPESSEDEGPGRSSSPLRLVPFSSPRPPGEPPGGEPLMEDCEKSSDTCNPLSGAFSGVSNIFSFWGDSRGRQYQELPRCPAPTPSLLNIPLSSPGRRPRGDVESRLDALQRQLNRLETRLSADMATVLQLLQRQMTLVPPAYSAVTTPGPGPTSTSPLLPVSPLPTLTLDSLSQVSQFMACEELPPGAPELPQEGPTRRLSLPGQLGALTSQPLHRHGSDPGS

For orientation: IC50 means the concentration that gives 50% inhibition. For the compound `O=C(O)CCCN1CCN(C(=O)CNC(=O)/C=C/c2ccc(C(F)(F)F)cc2F)C(c2cccc(Cl)c2)C1` (stereo not drawn) [I-238], the IC50 at hERG channel is greater than 30 µM; at Human BOAT1 (setting [1]), 0.097 µM.
Turning to `O=C(O)CCCN1CCN(C(=O)CNC(=O)/C=C/c2ccc(C(F)(F)F)cc2F)C(c2cccc(F)c2)C1` (stereo not drawn) [I-239], the IC50 at hERG channel is greater than 30 µM; at Human BOAT1 (setting [1]), 0.302 µM.
With `O=C(O)CCCN1CCN(C(=O)CNC(=O)/C=C/c2ccc(C(F)(F)F)cc2F)C(c2ccccc2F)C1` (stereo not drawn) [I-240], the IC50 was greater than 30 µM on hERG channel and 0.197 µM at Human BOAT1 (setting [1]).
In the case of `O=C(O)CCN1CCN(C(=O)CNC(=O)/C=C/c2ccc(C(F)(F)F)cc2F)C(c2ccccc2)C1` (stereo not drawn) [I-241], the IC50 at hERG channel was greater than 30 µM; at Human BOAT1 (setting [1]), 0.161 µM.
Turning to `O=C(O)CCCCN1CCN(C(=O)CNC(=O)/C=C/c2ccc(C(F)(F)F)cc2F)C(c2ccccc2)C1` (stereo not drawn) [I-242], the values for the half-inhibitory concentration (IC50) at hERG channel and on Human BOAT1 (setting [1]) were greater than 30 µM and 0.158 µM, respectively.
Consider `O=C(O)CCCN1CCN(C(=O)CNC(=O)/C=C/c2ccc(C(F)(F)F)cc2F)[C@@H](C(F)(F)F)C1` [I-243], for which the IC50 on hERG channel was greater than 30 µM; at Human BOAT1 (setting [1]) it was 3.7 µM.
On the same counts, the results for `O=C(O)CCCN1CCN(C(=O)CNC(=O)/C=C/c2ccc(C(F)(F)F)cc2F)[C@H](C(F)(F)F)C1` [I-244] are greater than 30 µM and 0.613 µM.
`O=C(/C=C/c1ccc(C(F)(F)F)cc1F)NCC(=O)N1CCN(C[C@H]2C[C@H](C(=O)O)C2)CC1c1ccc(Cl)cc1` (stereo partly drawn) [I-248]: the IC50 was greater than 30 µM at hERG channel and 0.147 µM on Human BOAT1 (setting [1]).
On the same counts, the results for `O=C(/C=C/c1ccc(C(F)(F)F)cc1F)NCC(=O)N1CCN(CC23CC(C(=O)O)(C2)C3)CC1c1ccc(Cl)cc1` (stereo not drawn) [I-250] are greater than 30 µM and 0.506 µM.
Consider `O=C(/C=C/c1ccc(C(F)(F)F)cc1F)NCC(=O)N1CCCC(c2cccc(C(=O)O)c2)C1` (stereo not drawn) [I-255], for which the half-inhibitory concentration (IC50) was greater than 30 µM at hERG channel and 0.766 µM at Human BOAT1 (phenylalanine uptake).
As to `O=C(O)CCCN1CCN(C(=O)CNC(=O)/C=C/c2ccc(C(F)(F)F)cc2F)C(c2ccc(Cl)c(F)c2)C1` (stereo not drawn) [I-257], the IC50 on hERG channel stood at 29.6 µM; on Human BOAT1 (phenylalanine uptake), 0.108 µM.
On the same counts, the results for `C[C@@H]1CN(C(=O)CNC(=O)/C=C/c2ccc(C(F)(F)F)cc2F)[C@@H](c2ccccc2)CN1CCCC(=O)O` [I-261] are greater than 30 µM and 0.03 µM.
As to `C[C@@H]1CN(C(=O)CNC(=O)/C=C/c2ccc(C(F)(F)F)cc2F)[C@@H](c2ccc(Cl)cc2)CN1CCCC(=O)O` [I-337], the IC50 on hERG channel came to 15.5 µM; on Human BOAT1 (phenylalanine uptake) it was 0.031 µM.
The corresponding values for `C[C@@H]1CN(C(=O)CNC(=O)/C=C/c2ccc(C(F)(F)F)cc2F)[C@@H](c2ccc(F)cc2)CN1CCCC(=O)O` [I-338] are greater than 30 µM and 0.054 µM.
For the compound `C[C@@H]1CN(C(=O)CNC(=O)/C=C/c2ccc(C(F)(F)F)cc2F)[C@@H](c2cccc(F)c2)CN1CCCC(=O)O` [I-340], the half-inhibitory concentration (IC50) on hERG channel was greater than 30 µM; on Human BOAT1 (phenylalanine uptake) it was 0.062 µM.
As to `O=C(O)CCCN1C[C@H](c2ccccc2)N(C(=O)CNC(=O)/C=C/c2ccc(C(F)(F)F)cc2F)CC12CC2` [I-341], the values for the IC50 at hERG channel and on Human BOAT1 (phenylalanine uptake) were greater than 30 µM and 1.68 µM, respectively.
On the same counts, the results for `CC(C)[C@@H]1CN(C(=O)CNC(=O)/C=C/c2ccc(C(F)(F)F)cc2F)[C@@H](c2ccccc2)CN1CCCC(=O)O` [I-342] are greater than 30 µM and 0.338 µM.
The corresponding values for `CC[C@@H]1CN(C(=O)CNC(=O)/C=C/c2ccc(C(F)(F)F)cc2F)[C@@H](c2ccccc2)CN1CCCC(=O)O` [I-343] are greater than 30 µM and 0.091 µM.
For `C[C@@H]1CN(C(=O)CNC(=O)/C=C/c2ccc(C(F)(F)F)cc2F)[C@@H](c2ccc(F)c(F)c2)CN1CCC(=O)O` [I-348], the IC50 on hERG channel is greater than 30 µM; on Human BOAT1 (phenylalanine uptake), 0.045 µM.
Take `C[C@@H]1CN(C(=O)CNC(=O)/C=C/c2ccc(C(F)(F)F)cc2F)[C@@H](c2ccc(F)c(F)c2)CN1CCCC(=O)O` [I-349]: the figures for the 50% inhibitory concentration (IC50) at hERG channel and on Human BOAT1 (phenylalanine uptake) were greater than 30 µM and 0.093 µM, respectively.
Consider `C[C@@H]1CN(C(=O)CNC(=O)/C=C/c2ccc(C(F)(F)F)cc2)[C@@H](c2ccc(F)c(F)c2)CN1CCCC(=O)O` [I-350], for which the figures for the IC50 on hERG channel and on Human BOAT1 (phenylalanine uptake) were greater than 30 µM and 0.184 µM, respectively.
Turning to `C[C@@H]1[C@H](c2ccccc2)N(C(=O)CNC(=O)/C=C/c2ccc(C(F)(F)F)cc2F)CCN1CCCC(=O)O` [I-353], the IC50 on hERG channel was greater than 30 µM; on Human BOAT1 (phenylalanine uptake), 0.4 µM.
In the case of `Cc1ccc([C@H]2CN(CCCC(=O)O)[C@H](C)CN2C(=O)CNC(=O)/C=C/c2ccc(C(F)(F)F)cc2F)cc1` [I-383], the results for the IC50 on hERG channel and on Human BOAT1 (setting [1]) were 15.2 µM and 0.064 µM, respectively.
As to `C[C@@H]1CN(C(=O)CNC(=O)/C=C/c2ccc(C(F)(F)F)cc2F)[C@@H](c2cccc(C3CC3)c2)CN1CCC(=O)O` [I-384], the results for the IC50 at hERG channel and at Human BOAT1 (setting [1]) were 15.8 µM and 0.031 µM, respectively.
On to `Cc1cccc([C@H]2CN(CCCC(=O)O)[C@H](C)CN2C(=O)CNC(=O)/C=C/c2ccc(C(F)(F)F)cc2F)c1` [I-385], for which the IC50 at hERG channel was 21 µM; at Human BOAT1 (setting [1]), 0.07 µM.
With `C[C@@H]1CN(C(=O)CNC(=O)/C=C/c2ccc(C(F)(F)F)cc2F)[C@@H](c2cccnc2)CN1CCCC(=O)O` [I-395], the IC50 at hERG channel was greater than 30 µM; at Human BOAT1 (phenylalanine uptake) it was 0.636 µM.
`C[C@@H]1CN(C(=O)CNC(=O)/C=C/c2ccc(C(F)(F)F)cc2F)[C@@H](c2ccc(Cl)s2)CN1CCC(=O)O` [I-396]: the values for the IC50 at hERG channel and at Human BOAT1 (phenylalanine uptake) were greater than 30 µM and 0.071 µM, respectively.
Turning to `[2H]C([2H])([2H])[C@@H]1CN(C(=O)CNC(=O)/C=C/c2ccc(C(F)(F)F)cc2F)[C@@H](c2ccccc2)CN1CCCC(=O)O` [I-397], the IC50 was greater than 30 µM on hERG channel and 0.075 µM at Human BOAT1 (phenylalanine uptake).
As for `C[C@@H]1CN(C(=O)CNC(=O)/C=C/c2ccc(C(F)(F)F)cc2F)[C@@H](c2ccc3ccccc3c2)CN1CCCC(=O)O` [I-398], the IC50 was found to be 25.6 µM at hERG channel and 0.042 µM on Human BOAT1 (phenylalanine uptake).
The corresponding values for `Cc1noc([C@H]2CN(CCCC(=O)O)CCN2C(=O)CNC(=O)/C=C/c2ccc(C(F)(F)F)cc2F)n1` [I-401] are greater than 30 µM and 2.9 µM.

The values above are taken from patent US20260001849A1, “NOVEL B0AT1 INHIBITOR” (MITSUBISHI TANABE PHARMA CORPORATION, priority 2023, published 2026).
